Test results published in US5288725A, “Pyrroloquinoline Bradykinin antagonist” (Merck & Co., Inc., priority 1992, dated 1994).
Where no end group is shown, it is not given here.

How the values were obtained:
BK β2 receptor = target: T1, BK β2 receptor (Cavia porcellus, UniProt O70526); assay: [3H] BK radioligand binding, guinea pig ileum membranes; settings: read-out: IC50, inhibition of [3H] BK binding
T1 construct: from tissue; host or cells: guinea pig ileum membranes
T1 sequence (O70526 1-372): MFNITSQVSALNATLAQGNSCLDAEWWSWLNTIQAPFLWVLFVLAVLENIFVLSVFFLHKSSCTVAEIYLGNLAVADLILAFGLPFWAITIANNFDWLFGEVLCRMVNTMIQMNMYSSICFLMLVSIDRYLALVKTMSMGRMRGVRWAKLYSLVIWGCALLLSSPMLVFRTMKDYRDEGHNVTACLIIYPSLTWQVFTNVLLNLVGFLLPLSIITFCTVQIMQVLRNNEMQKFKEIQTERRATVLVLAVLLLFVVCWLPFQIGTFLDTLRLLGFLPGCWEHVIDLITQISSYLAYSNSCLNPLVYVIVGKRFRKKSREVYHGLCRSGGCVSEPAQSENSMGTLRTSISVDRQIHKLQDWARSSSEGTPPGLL

α1-adrenergic receptors = assay: [3H] Prazosin radioligand binding, rat brain
[1] = target: cholinergic muscarinic receptors; assay: [3H] Quinuclidinyl benzilate binding, rat cerebral cortex membranes
[2] = target: T2, cholinergic muscarinic receptors (Rattus norvegicus, UniProt P10980); assay: [3H] Quinuclidinyl benzilate binding, rat cardiac membranes
T2 construct: rat cardiac membranes; from tissue; host or cells: rat cardiac membranes
T2 sequence (P10980 1-466): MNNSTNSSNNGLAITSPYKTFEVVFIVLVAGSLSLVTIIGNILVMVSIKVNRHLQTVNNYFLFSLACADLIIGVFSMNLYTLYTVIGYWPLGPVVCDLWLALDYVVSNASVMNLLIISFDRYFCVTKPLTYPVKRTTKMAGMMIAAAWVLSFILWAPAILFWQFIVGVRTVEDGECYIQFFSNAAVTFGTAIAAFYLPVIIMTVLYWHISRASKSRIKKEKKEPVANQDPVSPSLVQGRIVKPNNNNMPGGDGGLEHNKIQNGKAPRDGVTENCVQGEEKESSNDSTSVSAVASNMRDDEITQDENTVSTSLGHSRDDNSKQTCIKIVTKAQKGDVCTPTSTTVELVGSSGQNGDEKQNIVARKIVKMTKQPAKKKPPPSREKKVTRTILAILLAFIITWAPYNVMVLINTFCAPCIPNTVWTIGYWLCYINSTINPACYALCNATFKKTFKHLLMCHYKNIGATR

[3] = target: T3, cholinergic muscarinic receptors (Cavia porcellus, UniProt H0VRN8); assay: [3H] Quinuclidinyl benzilate binding, guinea pig ileum membranes
T3 construct: guinea pig ileum membranes as described by Watson; from tissue; host or cells: guinea pig ileum membranes
T3 sequence (H0VRN8 1-466): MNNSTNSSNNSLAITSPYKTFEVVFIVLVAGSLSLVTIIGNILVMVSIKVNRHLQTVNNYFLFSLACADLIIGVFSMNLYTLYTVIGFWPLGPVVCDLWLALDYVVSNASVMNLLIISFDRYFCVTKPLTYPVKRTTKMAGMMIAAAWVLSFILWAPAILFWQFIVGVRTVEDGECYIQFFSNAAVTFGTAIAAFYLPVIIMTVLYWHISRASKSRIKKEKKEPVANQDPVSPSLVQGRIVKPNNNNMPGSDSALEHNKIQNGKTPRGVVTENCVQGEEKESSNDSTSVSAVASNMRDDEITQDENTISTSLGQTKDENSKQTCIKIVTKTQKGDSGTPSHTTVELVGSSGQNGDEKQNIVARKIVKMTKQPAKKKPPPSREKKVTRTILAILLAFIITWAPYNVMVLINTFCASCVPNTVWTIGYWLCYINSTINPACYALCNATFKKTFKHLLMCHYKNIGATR

BK-β1 receptors = target: T4, BK-β1 receptors (Oryctolagus cuniculus, UniProt P48748); assay: Antagonism of BK-β1 receptors, spiral strips of rabbit thoracic aorta (agonist des Arg9-BK); settings: Schild analysis
T4 construct: spiral strips of rabbit thoracic aorta; from tissue; host or cells: rabbit thoracic aorta spiral strips
T4 sequence (P48748 1-352): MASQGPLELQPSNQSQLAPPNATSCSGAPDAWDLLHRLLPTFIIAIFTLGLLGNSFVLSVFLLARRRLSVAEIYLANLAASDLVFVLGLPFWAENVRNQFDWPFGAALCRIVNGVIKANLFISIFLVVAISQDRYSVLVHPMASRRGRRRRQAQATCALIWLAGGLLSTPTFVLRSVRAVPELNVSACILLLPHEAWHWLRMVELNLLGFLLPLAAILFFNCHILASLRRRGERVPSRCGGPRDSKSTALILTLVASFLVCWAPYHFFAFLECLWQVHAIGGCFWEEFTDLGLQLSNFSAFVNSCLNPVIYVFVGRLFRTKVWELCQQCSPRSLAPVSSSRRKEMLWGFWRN
Method: (§1) Antagonism of BK-β1 receptors was measured using spiral strips of rabbit thoracic aorta as described by Regoli et. al., Eur. J. Pharmacol., 127,219 (1986).

α1-adrenergic receptor = α1-adrenergic receptor activity in rabbit aorta (agonist norepinephrine)
Method: as §1
(§2) The α1 -adrenergic and H1 histaminergic receptor activity of compounds were also assessed using rabbit aorta with norepinephrine and histamine, respectively, as agonists.

histamine H1 receptor = assay: H1 histaminergic receptor activity in rabbit aorta (agonist histamine)
Method: as §1, §2

[4] = system: bradykinin receptors of rat vas deferens; settings: cited from earlier work
β1 receptor = settings: compared with BK; cited from earlier work
β2 receptors = settings: cited from earlier work

CC(C)=CCNC(=N)NCCC[C@@H]1Nc2ccc(C(=O)OC/C(C)=C/CNC(=N)N)cc2[C@@H]2[C@H]1CCN2C(=N)NCC=C(C)C (relative stereo) [Compound I]
IC50 (BK β2 receptor): 200 nM
IC50 (α1-adrenergic receptors): 60 nM
IC50 [1]: 100 nM
IC50 [2]: 100 nM
IC50 [3]: 100 nM
mode of antagonism, β1 receptor (BK-β1 receptors): competitive β1 receptor antagonist
Kb (BK-β1 receptors; read-out: pA2 value, β1 receptor (converted)): 2000 nM
mode of antagonism, α1 receptor (α1-adrenergic receptor): competitive antagonist
pA2 value, α1 receptor (α1-adrenergic receptor): 7.1
mode of antagonism, histamine H1 receptor (histamine H1 receptor): competitive antagonist
pA2 value, histamine H1 receptor (histamine H1 receptor): 5.9

RPPGFSPFR [BK]
musculotropic or postjunctional action ([4]; isolated rat vas deferens): contracted the smooth muscle generating an increased muscle tone
neurogenic or presynaptic effect ([4]; isolated rat vas deferens, electrically driven twitches): potentiated the magnitude of the muscular response to the electrically driven twitches

des-Arg^9 -bradykinin
pre- or postsynaptic BK like responses ([4]; rat vas deferens): inactive
β1 receptor agonist potency (β1 receptor): higher potency than BK
activity at β2 receptors (β2 receptors): relatively inactive
